ChEMBL document CHEMBL5346920, “Development of the "hidden" multi-target-directed ligands by AChE/BuChE for the treatment of Alzheimer's disease” (Eur J Med Chem, 2023)
Calls of active or inactive are those of the source. The rule behind the calls is not given here.

Experiments:
[1] = system: PC-12; test: Neuroprotective activity against Amyloid beta(25 to 35)-induced cell injury in rat PC12 cells assessed as cell viability at 20 uM pretreated for 2 hrs followed by incubation with Abeta(25 to 35) for 24 hrs by CCK-8 assay (reference value: 41 to 58.6%); type: functional; details: time 26 hrs, read-out: Activity
[2] = organism: Danio rerio; test: Neuroprotective activity against AlCl3-induced Alzheimer's disease zebra fish model assessed as distance velocity at 0.078 ug/ml treated for 24 hrs and measured after 24 hrs under alternating light dark stimuli conditions (reference value: 9 cm/min); type: functional; details: dose 0.078 µg/ml; time 48 hrs
[3] = Metal chelating activity assessed as compound-Fe2+ complex formation at 37.5 uM incubated for 30 mins in presence of FeSO4 by UV-Vis spectrometry
[4] = target: Acetylcholinesterase (Electrophorus electricus, UniProt O42275); test: Drug metabolism assessed as electric eel AChE-mediated 3-(4-fluorophenyl)-1-(2-hydroxyphenyl)prop-2-en-1-one formation treated at 150 mmol/L with 0.001U AChE and measured after 9 mins by HPLC analysis; type: ADME; details: 0.15 h
[5] = organism: Danio rerio; test: Neuroprotective activity against AlCl3-induced Alzheimer's disease zebra fish model assessed as distance velocity at 0.078 ug/ml treated for 24 hrs and measured after 24 hrs under dark environment (reference value: 10.4 cm/min); type: functional; details: dose 0.078 µg/ml; time 48 hrs
[6] = Stability of the compound in artificial intestinal juice assessed as parent compound remaining at 1 mg/ml measured after 8 hrs by UPLC-MS/MS analysis; type: ADME; details: read-out: Stability
[7] = target: Cholinesterase (Equus caballus, UniProt P81908); test: Drug metabolism assessed as equine serum BuChE-mediated 3-(4-fluorophenyl)-1-(2-hydroxyphenyl)prop-2-en-1-one formation treated at 150 mmol/L with 0.05U BuChE and measured after 9 mins by HPLC analysis; type: ADME, cell-free; details: horse, 0.15 h
[8] = Metal chelating activity assessed as compound-Cu2+ complex formation by measuring maximum absorption wavelength shift from 316 to 446 nm at 37.5 uM incubated for 30 mins in presence of CuCl2 by UV-Vis spectrometry
[9] = Stability of the compound in artificial gastric juice assessed as parent compound remaining at 1 mg/ml measured after 8 hrs by UPLC-MS/MS analysis; type: ADME; details: read-out: Stability
[10] = organism: Danio rerio; test: Antialzheimer activity against AlCl3-induced Alzheimer's disease zebra fish model assessed as total distance moved at 0.0049 ug/ml treated for 24 hrs and measured after 24 hrs under alternating light dark stimuli conditions (reference value: 543 cm); type: functional; details: dose 0.0049 µg/ml; time 48 hrs
[11] = target: Cholinesterase (Equus caballus) (UniProt P81908); test: Reversible inhibition of equine serum BuChE assessed as enzyme activity using butyrylthiocholine chloride as substrate measured after dilution to 1XIC50 by Ellman's method; type: cell-free; set-up: scale not given: the % may be the effect or the level left
[12] = organism: Danio rerio; test: Antialzheimer activity against AlCl3-induced Alzheimer's disease zebra fish model assessed as total distance moved at 0.0195 ug/ml treated for 24 hrs and measured after 24 hrs under light environment (reference value: 230 cm); type: functional; details: dose 0.0195 µg/ml; time 48 hrs
[13] = Selectivity index, ratio of IC50 for inhibition of electric eel AChE to IC50 for inhibition of equine serum BuChE
[14] = organism: Danio rerio; test: Neuroprotective activity against AlCl3-induced Alzheimer's disease zebra fish model assessed as distance velocity at 0.0049 ug/ml treated for 24 hrs and measured after 24 hrs under alternating light dark stimuli conditions (reference value: 9 cm/min); type: functional; details: dose 0.0049 µg/ml; time 48 hrs
[15] = organism: Danio rerio; test: Neuroprotective activity against AlCl3-induced Alzheimer's disease zebra fish model assessed as distance velocity at 0.0195 ug/ml treated for 24 hrs and measured after 24 hrs under alternating light dark stimuli conditions (reference value: 9 cm/min); type: functional; details: dose 0.0195 µg/ml; time 48 hrs
[16] = organism: Danio rerio; test: Antialzheimer activity against AlCl3-induced Alzheimer's disease zebra fish model assessed as improvement in total distance velocity at 0.0195 ug/ml treated for 24 hrs and measured after 24 hrs; type: functional, organism-based; details: dose 0.0195 µg/ml, time 48.0 hrs

Chain of Cholinesterase (Equus caballus) (P81908 whole entry): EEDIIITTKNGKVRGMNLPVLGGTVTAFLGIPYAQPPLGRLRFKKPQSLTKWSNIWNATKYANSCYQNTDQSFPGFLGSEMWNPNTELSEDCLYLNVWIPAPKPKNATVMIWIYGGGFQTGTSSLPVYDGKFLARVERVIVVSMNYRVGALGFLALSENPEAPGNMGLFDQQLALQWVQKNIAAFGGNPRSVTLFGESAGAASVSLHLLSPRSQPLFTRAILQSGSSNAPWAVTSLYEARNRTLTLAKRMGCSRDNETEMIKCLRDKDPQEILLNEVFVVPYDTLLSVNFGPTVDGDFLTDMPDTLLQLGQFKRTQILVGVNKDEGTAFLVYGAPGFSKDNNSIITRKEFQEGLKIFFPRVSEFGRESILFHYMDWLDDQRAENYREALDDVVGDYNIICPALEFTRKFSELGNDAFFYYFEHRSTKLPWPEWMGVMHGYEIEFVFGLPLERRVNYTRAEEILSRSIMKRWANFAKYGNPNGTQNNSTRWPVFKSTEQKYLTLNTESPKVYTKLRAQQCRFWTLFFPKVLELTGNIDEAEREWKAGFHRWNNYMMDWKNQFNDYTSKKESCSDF
Chain of Cholinesterase (P81908 whole entry): as above
Chain of Acetylcholinesterase (O42275 whole entry): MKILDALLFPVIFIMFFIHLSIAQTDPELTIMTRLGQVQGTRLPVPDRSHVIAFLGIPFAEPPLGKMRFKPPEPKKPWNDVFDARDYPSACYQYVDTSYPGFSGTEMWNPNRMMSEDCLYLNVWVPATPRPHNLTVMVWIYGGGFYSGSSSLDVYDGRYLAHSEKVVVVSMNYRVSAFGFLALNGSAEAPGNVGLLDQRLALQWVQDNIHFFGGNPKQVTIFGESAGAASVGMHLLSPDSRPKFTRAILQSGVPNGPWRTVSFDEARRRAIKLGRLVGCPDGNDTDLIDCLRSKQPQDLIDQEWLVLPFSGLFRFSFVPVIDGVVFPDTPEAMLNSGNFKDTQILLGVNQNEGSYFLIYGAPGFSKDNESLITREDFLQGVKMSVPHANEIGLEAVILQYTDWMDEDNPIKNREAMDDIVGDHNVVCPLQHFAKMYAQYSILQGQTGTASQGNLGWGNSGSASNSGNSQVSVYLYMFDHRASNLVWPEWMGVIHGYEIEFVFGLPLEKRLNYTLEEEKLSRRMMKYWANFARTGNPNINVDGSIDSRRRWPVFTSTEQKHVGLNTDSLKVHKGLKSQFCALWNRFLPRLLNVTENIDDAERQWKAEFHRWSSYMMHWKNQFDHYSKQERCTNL

SMILES: CCN(C)C(=O)Oc1ccccc1C(=O)/C=C/c1ccc(F)cc1
- viability at 20 µM [1]: 79.7%
- Activity [2]: 12.7 cm/min
- Activity [3]: inactive
- Drug metabolism [4]: 5.56 mmol/L
- Activity [5]: 17.9 cm/min
- remaining at 8 h, 1 mg/ml [6]: 104%
- Drug metabolism [7]: 14.17 mmol/L
- Activity [8]: inactive
- remaining at 8 h, 1 mg/ml [9]: 97.3%
- Activity [10]: 764 cm
- Activity [11]: 51.7%
- Activity [12]: 344 cm
- Ratio IC50 [13]: 0.43
- Activity [14]: 12.7 cm/min
- Activity [15]: 15.3 cm/min
- Activity [16]: Active
